Laboratory results published in ChEMBL document CHEMBL1201862, “PubChem BioAssay data set” (2004).
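Assay format: 96-well plates, 48-hour exposure. The concentration for 50% growth inhibition is given as GI50.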 Active and inactive are the calls of the source. No stated cut-off is given here; in the data, active = GI50 up to about 1.1 µM and inactive = higher.

Tests used:
Test in all cases: DTP human tumour cell line panel, 48 h
MDA-N = tested on: MDA-N
DU-145 = tested on: DU-145
Hs-578T = tested on: Hs-578T
PC-3 = tested on: PC-3
MDA-MB-231 = tested on: MDA-MB-231
BT-549 = tested on: BT-549
MDA-MB-435 = tested on: MDA-MB-435

Measured: GI50

O=c1c(C(c2ccc(C(c3c(O)oc4cc(O)ccc4c3=O)c3c(O)oc4cc(O)ccc4c3=O)cc2)c2c(O)oc3cc(O)ccc3c2=O)c(O)oc2cc(O)ccc12
inactive: MDA-N > 100 µM | DU-145 > 100 µM | Hs-578T > 100 µM | PC-3 > 100 µM | MDA-MB-231 > 100 µM | BT-549 > 100 µM | MDA-MB-435 > 100 µM

O=c1[nH]c(=O)n(CCOCP(=O)(O)O)nc1Br
inactive: MDA-N > 100 µM | DU-145 > 100 µM | Hs-578T > 100 µM | PC-3 > 100 µM | MDA-MB-231 > 100 µM | BT-549 > 100 µM | MDA-MB-435 > 100 µM
